Source: BindingDB's records for patent US20250099442 (Prothena Biosciences, 2025)

What follows are molecules tested against Dual specificity tyrosine-phosphorylation-regulated kinase 1A (Homo sapiens, UniProt Q13627) (assay: DYRK1A Inhibition Assay).
Method: Assay Procedure1. Add 5 μL enzyme & substrate mixture to each well in Column 2-23 and A24-H24 wells of the 384-well assay plate;2. Add 5 μL 0% Phosphorylation control to A1-H1 and I24-P24 wells of the assay plate;3. Add 5 μL 100% Phosphorylation control to I1-P1 wells of the assay plate;4. Spin the assay plate (1000 rpm, 1 minute @23° C.);5. Incubate enzyme with compounds for 15 minutes at 23° C.;6. Add 5 μL ATP solution to each well of the assay plate;7. Spin the plate (1000 rpm, 1 minute @23° C.);8. Incubate the assay plate for 90 minutes at 23° C.;9. Add 10 μL Development reagent A to each well of the assay plate;10. Centrifuge the plate at 1000 rpm about 15 seconds and seal a film over assay plate. Incubate the assay plate for 30 minutes at 23° C.11. Read assay plates on Envision

`CN1CCC(N2CCn3c(nc4ccc(-c5ccncc5)cc43)C2)CC1` [US20250099442, Compound I.49] and `CN1CCC(C(=O)N2CCn3c(nc4ccc(-c5ccncc5)cc43)C2)CC1` [US20250099442, Compound I.64] fall in the same range of IC50: 10 to 100 nM for the first, 10 to 100 nM for the second.

First: CC(C)CN1CCC(CNc2nccc(-c3cn(C(C)C)c4cnccc34)n2)CC1 [US20250099442, Compound I.9]
Second: CC(C)CN1CCC(C(=O)Nc2cc(-c3c[nH]c4cnccc34)ccn2)CC1 [US20250099442, Compound I.3]
The IC50 of the first is higher: 100 to 1000 nM for the first, less than 10 nM for the second. The second is the more potent here.

`CC(=O)Nc1ccc2cnc(NC(=O)C3CCN(C)CC3)cc2c1` [US20250099442, Compound II.22] and `COc1cc(-c2ccnc(NC(=O)C3CCN(C)CC3)c2)cc2cnccc12` [US20250099442, Compound I.60] cannot be ordered by IC50: less than 500 nM for the first, 10 to 100 nM for the second.

First: CCOc1cc(-c2ccc3nc(NC(=O)[C@H]4CCCN(C)C4)sc3c2)ccn1 [US20250099442, Compound I.61]
Second: CN1CCC(C(=O)Nc2nc3ccc(-c4ccncc4)cc3s2)CC1 [US20250099442, Compound I.14]
The IC50 of the first is higher: 100 to 1000 nM for the first, less than 10 nM for the second.

`CS(=O)(=O)N1CCC(n2cnc3ccc(-c4ccncc4)cc32)CC1` [US20250099442, Compound I.32] and `CC(=O)N1CCC(n2cnc3ccc(-c4ccncc4)cc32)CC1` [US20250099442, Compound I.38] fall in the same range of IC50: 10 to 100 nM for the first, 10 to 100 nM for the second.

First: C(#CC1CCOCC1)c1cc(-c2cn(C3CCOCC3)c3cnccc23)ccn1 [US20250099442, Compound I.92]
Second: Cc1c(C#CC2CCOCC2)nc2ccc(-c3ccncc3)cn12 [US20250099442, Compound I.76]
The IC50 of the first is lower: less than 10 nM for the first, 10 to 100 nM for the second.

Compared with `c1cc(Cc2cnc3ccc(-c4ccncc4)cn23)c2cn[nH]c2c1` [US20250099442, Compound I.28], `c1cc(-c2c[nH]c3cnccc23)ccn1` [US20250099442, Compound I.1] is lower in IC50: 100 to 1000 nM for the first, 10 to 100 nM for the second. The second is the more potent here.

Compared with `COc1cc(-c2ccc3nc(NC(=O)c4cccc(C#N)c4)sc3n2)ccn1` [US20250099442, Compound I.71], `CN1C[C@@H]2C(C(=O)Nc3nc4ccc(-c5cccnc5)nc4s3)[C@@H]2C1` (stereo partly drawn) [US20250099442, Compound I.70] is higher in IC50: less than 10 nM for the first, 100 to 1000 nM for the second. The first is the more potent here.

First: CN1CCC(C(=O)Nc2cn3cc(-c4ccncc4)cc3cn2)CC1 [US20250099442, Compound I.59]
Second: Cn1nc2cnccc2c1-c1ccnc(NC(=O)C2CC2)c1 [US20250099442, Compound I.25]
The IC50 of the first is lower: 10 to 100 nM for the first, greater than 1000 nM for the second. The first is the more potent here.

`COc1ccc(CN2Cc3ncc(-c4ccc(C#N)cc4)n3CC2=O)cc1` [US20250099442, Compound I.82] and `O=C(O)c1ccc(-c2cnc3n2CC(=O)N(C2CCOCC2)C3)cc1` [US20250099442, Compound I.81] cannot be ordered by IC50: greater than 1000 nM for the first, greater than 1000 nM for the second.

`C[C@@H]1CC(C(=O)Nc2cn3cc(-c4ccncc4)ccc3n2)C[C@H](C)N1` (stereo partly drawn) [US20250099442, Compound I.65] and `Cc1c(-c2ccncc2)cn2cnc(NC(=O)C3C4CNCC43)cc12` (stereo not drawn) [US20250099442, Compound I.74] fall in the same range of IC50: 10 to 100 nM for the first, 10 to 100 nM for the second.

First: Cc1c(-c2ccncc2)cn2cnc(NC(=O)C3[C@H]4CN(C)C[C@@H]34)cc12 (stereo partly drawn) [US20250099442, Compound I.73]
Second: Cc1cc(-c2ccnc(NC(=O)C3CCN(C)CC3)c2)c2ocnc2c1 [US20250099442, Compound I.57]
The IC50 of the first is lower: 10 to 100 nM for the first, 100 to 1000 nM for the second. The first is the more potent here.

Compared with `Fc1ccc(COc2cc(-c3ccc4c(c3)CCO4)ccn2)cc1F` [US20250099442, Compound I.35], `CCN1CCC(C(=O)Nc2cc(-c3ccc4ncn(C(F)F)c4c3)ccn2)CC1` [US20250099442, Compound I.93] is lower in IC50: greater than 1000 nM for the first, 10 to 100 nM for the second. The second is the more potent here.

First: Cc1cc(-c2cn3ncc(-c4ccc(O)c(C#N)c4)c3c(=O)n2C)ccn1 [US20250099442, Compound I.84]
Second: CN1CCn2c(nc3ccc(-c4ccncc4)cc32)C1 [US20250099442, Compound I.50]
The IC50 of the first is lower: 10 to 100 nM for the first, greater than 1000 nM for the second. The first is the more potent here.
